From patent US20170370908A1, “BRAIN IN VITRO MODELS, DEVICES, SYSTEMS, AND METHODS OF USE THEREOF” (President and Fellows of Harvard College, priority 2014, published 2017)

Test system: pericytes
Assay: Muscular thin film (MTF) assay of pericyte contraction response to vasoactive agents
Type: cell-based
Conditions: pericytes on muscular thin films treated with vasoactive agent
Text: FIG. 6 illustrates an assay used to measure stress applied by pericytes treated with the vasoactive agent, endothelin.
FIG. 7 illustrates stress measurement applied by pericytes treated with vasoactive agent endothelin.

Compound: CC[C@H](C)[C@H](NC(=O)[C@H](CC(=O)O)NC(=O)[C@H](CC(C)C)NC(=O)[C@H](Cc1c[nH]cn1)NC(=O)[C@@H]1CSSC[C@H](N)C(=O)N[C@@H](CO)C(=O)N[C@H]2CSSC[C@H](NC(=O)[C@H](CCC(=O)O)NC(=O)[C@H](CCCCN)NC(=O)[C@H](CC(=O)O)NC(=O)[C@H](CCSC)NC(=O)[C@H](CC(C)C)NC(=O)[C@H](CO)NC(=O)[C@H](CO)NC2=O)C(=O)N[C@@H](C(C)C)C(=O)N[C@@H](Cc2ccc(O)cc2)C(=O)N[C@@H](Cc2ccccc2)C(=O)N1)C(=O)N[C@H](C(=O)N[C@@H](Cc1c[nH]c2ccccc12)C(=O)O)[C@@H](C)CC [endothelin]
- contraction response of pericytes (stress applied by pericytes): induces pericyte contraction
